Experimental data reported in PMC10813298, “Evidence of Guanidines Potential against Leishmania (Viannia) braziliensis: Exploring In Vitro Effectiveness, Toxicities and of Innate Immunity Response Effects” (Biomolecules, 2023).

How the values were obtained:
[1] = Cytotoxicity against RAW 264.7 macrophages (MTT); assay type: cell-based, murine; settings: mouse, RAW 264.7 macrophages, pH 7.2, RAW 264.7 cells
Procedure: Murine macrophage cell line RAW 264.7 was used in this study. The cells were cultured in 75 cm^2 cell culture flasks (Corning Glass Workers, New York, NY, USA) using DMEM medium with a pH of 7.2, supplemented with 10% FBS and 1% antibiotic solution (containing 100 U/mL penicillin and 100 μg/mL streptomycin). The cells were maintained in an incubator at a temperature of 37 °C with 5% CO2. The spikes were performed after the cells reached complete confluence, characterized by the formation of a monolayer of cells around 48 h to 72 h after packaging.
(§1) In this study, we utilized the RAW 264.7 macrophages line (obtained from ATCC: code TIB-71™),human embryonic kidney cell line HEK-293 (obtained from ATCC: code CRL-1573™)and two human cancer cell cultures: the colon carcinoma cell line CaCo-2 and the adenocarcinomic human alveolar basal epithelial cell A549 (also obtained from ATCC: codesHTB-37™ and CCL-185™).These cell lines were cultured in Dulbecco’s modified Eagle medium (DMEM) from Gibco by Life Technologies (LifeTech Austria, Vienna, Austria). The growth medium was supplemented with 5% fetal bovine serum (FBS) from Gibco by Life Technologies and 1% penicillin-streptomycin obtained from Sigma-Aldrich (Vienna, Austria). The cells were maintained at 37 °C with 5% CO2 in a humidified incubator, and regular checks for mycoplasma contamination were carried out.
(§2) For experimental purposes, the cells were seeded into 96-well plates at a density of 2 × 10^4 cells/mL, with each well containing 100 µL of the cell suspension. The cells were allowed to adhere for 24 h. Subsequently, they were exposed to 100 µL of the test compounds, which were diluted in DMEM, with concentrations ranging from 2 to 600 µmol/L. The stock solutions of these compounds were prepared in water with 10% (v/v) dimethyl sulfoxide (DMSO) and stored at 4 °C.
(§3) To assess cell viability after 72 h of exposure to the compounds, we employed a 3-(4,5-dimethylthiazol-2-yl)-2,5-diphenyltetrazolium bromide (MTT)-based vitality assay kit (EZ4U, Biomedica, Vienna, Austria). Briefly, we added 20 µL of the EZ4U assay solution to each well and incubated the plates in the dark for 2 h. Subsequently, we measured the absorbance using a microplate reader at 450 nm, with 620 nm as a reference to reduce unspecific background values. For reliability, all experiments were conducted three times with triplicate samples.
The different mean concentrations for promastigotes (IC50) and macrophages (CC50) were calculated using nonlinear regression. For comparisons between groups, ANOVA analysis of variance was performed followed by Tukey’s test in a statistical program, taking the p-value < 0.05 as the maximum level of statistical significance.

right atrium = experiment: Chronotropic effect on isolated right atrium; set-up: species or system guinea pig; settings: for effect on heart rate (chronotropic): isolated guinea pig heart muscle preparation, up to 100 µmol/L
Procedure: Guinea pigs of either sex weighing between 250 or 380 g were utilized in this study. The animals were housed in a controlled environment in an air-conditioned room, maintaining a temperature of 22 to 24 °C and a relative humidity of 50% to 60%. A 12 h light–dark cycle was maintained.
On the day of the experiments, the animals were euthanized via cervical dislocation. The heart, aorta, pulmonary artery, and ileum were surgically removed and immersed in Krebs–Henseleit solution, with the following composition: NaCl 144.9 mM, KCl 4.73 mM, CaCl2 3.2 mM, MgSO4 1.18 mM, NaHCO3 24.9 mM, KH2PO4 1.18 mM, and glucose 10 mM, with the pH maintained at 7.2–7.4. This solution was continuously aerated with a mixture of 95% O2 and 5% CO2.
Papillary muscles were isolated from the right ventricle of the heart and meticulously cleared of Purkinje fibers to prevent spontaneous activity. To ensure adequate oxygen supply, only muscles with a diameter less than 0.87 mm were used. The right atrium was also dissected for assessment of chronotropic activity. Both the aorta and pulmonary artery were cleaned and cut into 5 mm rings, while the ileum was sectioned into pieces measuring 1 to 2 cm.
One end of the dissected tissues was securely tied with silver wire for attachment to a tissue holder, while the other end was connected to a force transducer (Transbridge™, 4-Channel Transducer Amplifier, World Precision Instruments, Sarasota, FL, USA). For contractile measurements, the terminal ileum was stimulated with 60 mM KCl, and the pulmonary artery and aorta rings were exposed to a 90 mM KCl solution. Papillary muscles were electrically stimulated using an Anapulse Stimulator Model 301-T and an Isolation Unit Model 305-1 (WPI, Hamden, CT, USA) with rectangular pulses of 3 ms duration at a frequency of 1 Hz. The amplitude of the stimulation pulse was maintained at 10% above the threshold level. To optimize contractility, a constant resting tension was applied throughout the experiment: 3.9 mN for papillary muscle, 4.9 mN for terminal ileum, 10.4 mN for the right atrium, and 19.6 mN for aorta and pulmonary artery rings.
Following a 30 min control period, different concentrations of test compounds were cumulatively added to the bath solution every 45 min until a stable effect was achieved. The responses were recorded using a chart recorder (BD 112 Dual Channel, Kipp &Zonen, PO Box 507, 2624 BC, Delft, Holland) for subsequent evaluation. Stock concentrations of the test compounds were prepared using DMSO. To account for any potential DMSO effect, control experiments were conducted with the solvent alone, and the observed effects were subtracted from the responses elicited by the test compounds.

[2] = Cell toxicity, MTT-based EZ4U assay, A549; set-up: species or system human; settings: human, A549 cells (alveolar basal epithelial adenocarcinoma), 72 h; for viability at 72 h, 2.34 µmol/L: A549, 2.34 µmol/L; for viability at 72 h, 4.6875 µmol/L: A549, 4.6875 µmol/L; for viability at 72 h, 9.375 µmol/L: A549, 9.375 µmol/L; for viability at 72 h, 18.75 µmol/L: A549, 18.75 µmol/L; for viability at 72 h, 37.5 µmol/L: A549, 37.5 µmol/L; for viability at 72 h, 75 µmol/L: A549, 75 µmol/L; for viability at 72 h, 150 µmol/L: A549, 150 µmol/L; for viability at 72 h, 300 µmol/L: A549, 300 µmol/L; for viability at 72 h, 600 µmol/L: A549, 600 µmol/L
Procedure: as §1
as §2, with “Subsequently, they were exposed to 100 µL of the test compounds, which were diluted in DMEM, with concentrations ranging from 2 to 600 µmol/L.” left out
as §3

A549 = experiment: Cell toxicity, MTT-based EZ4U assay, A549; set-up: species or system human; settings: A549, 1.56–500 µmol/L
Procedure: as §1
as §2, with “Subsequently, they were exposed to 100 µL of the test compounds, which were diluted in DMEM, with concentrations ranging from 2 to 600 µmol/L.” left out
as §3

| Structure (SMILES) | CC50 at 72 h [1] | effect on heart rate (chronotropic) (right atrium) | viability at 72 h, 2.34 µmol/L [2] | viability at 72 h, 4.6875 µmol/L [2] | viability at 72 h, 9.375 µmol/L [2] | viability at 72 h, 18.75 µmol/L [2] | viability at 72 h, 37.5 µmol/L [2] | viability at 72 h, 75 µmol/L [2] | viability at 72 h, 150 µmol/L [2] | viability at 72 h, 300 µmol/L [2] | viability at 72 h, 600 µmol/L [2] | toxic effects on cell viability (A549) | EC50 (right atrium; Cavia porcellus, isolated guinea pig right atrium, 3 to 100 µmol/L, read-out: EC50 reduction of heart rate activity) |
| --- | --- | --- | --- | --- | --- | --- | --- | --- | --- | --- | --- | --- | --- |
| O=C(/N=C(/NCc1ccccc1)Nc1ccc([N+](=O)[O-])cc1)c1ccccc1 [LQOF-G1, (Z)-N-benzoyl-N-benzyl-N-(4-nitrophenyl)guanidine] | 147 ± 2 µM | slight decrease in heart rate | 114 ± 7% | 97 ± 10.7% | 103 ± 8.8% | 103 ± 5.7% | 101 ± 8.3% | 92 ± 9.3% | 100 ± 6.5% | 110 ± 7.2% | 90 ± 8.3% | No toxic effects |  |
| O=C(/N=C(/NCc1ccccc1)Nc1ccc(Br)cc1)c1ccccc1 [LQOF-G2, (Z)-N-benzoyl-N-benzyl-N-(4-bromophenyl)guanidine] | 164 ± 2.9 µM |  | 106 ± 6.3% | 109 ± 5.5% | 102 ± 10.5% | 89 ± 5.7% | 99 ± 5.2% | 96 ± 7.7% | 109 ± 4.3% | 111 ± 9.3% | 110 ± 7.9% | No toxic effects | 69 µM |
| CC(C)(C)c1ccc(N/C(=N\C(=O)c2ccccc2)NCc2ccccc2)cc1 [LQOF-G6, (Z)-N-benzoyl-N-benzyl-N-(4-tert-butylphenyl)guanidine] | 154 ± 2.3 µM |  |  |  |  |  |  |  |  |  |  |  |  |
| O=C(/N=C(/NCc1ccccc1)Nc1ccc(I)cc1)c1ccccc1 [LQOF-G7, (Z)-N-benzoyl-N-benzyl-N-(4-iodophenyl)guanidine] | 183 ± 3.1 µM | slight decrease in heart rate |  |  |  |  |  |  |  |  |  |  |  |
| O=C(/N=C(/NCc1ccc(Cl)cc1Cl)Nc1ccc(Br)cc1)c1ccccc1 [LQOF-G32, (Z)-N-benzoyl-N-(2,4-di-chlorobenzyl)-N-(4-bromophenyl)guanidine] | 275.9 ± 2.4 µM | slight decrease in heart rate | 109 ± 9.7% | 157 ± 10.6% | 165 ± 8.1% | 121 ± 3.6% | 118 ± 9.9% | 115 ± 17.5% | 111 ± 15.5% | 106 ± 13.8% | 95 ± 10.4% | No toxic effects |  |
